Test results from patent US5210193A, “Piperazine derivatives” (American Cyanamid Company, priority 1990, dated 1993).
≈ marks a conversion by molar mass, not a printed value. Where two headings read alike, the source gives them in different places.

Columns and labels:
Assay in all cases: in vitro antibacterial MIC, agar plate dilution
Format in all cases: cell-based
[1] = test system: Pseudomonas aeruginosa CMC 83-20; conditions: Pseudomonas aeruginosa, CMC8320, 18 h, 35° C., read-out: MIC
Outline: (§1)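 Agar plate dilution on Mueller-Hinton agar, inoculum approximately 10^4 CFU per organism applied with a Steers replicator. MIC (mcg/ml) is the lowest compound concentration inhibiting visible growth after 18 hours at 35° C.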

[2] = test system: Staphylococcus aureus Smith; conditions: Staphylococcus aureus, 18 h, 35° C., read-out: MIC
Outline: as §1

Citrobacter div. K 82-24 = conditions: Citrobacter, DIV.K8224, 18 h, 35° C., read-out: MIC
Outline: as §1

[3] = test system: Staphylococcus aureus VGH 84-45; conditions: Staphylococcus aureus, VGH8445, 18 h, 35° C., read-out: MIC
Outline: as §1

[4] = test system: Staphylococcus aureus CMC 83-131; conditions: Staphylococcus aureus, CMC83131, 18 h, 35° C., read-out: MIC
Outline: as §1

[5] = test system: Serratia marcescens MOR 84-41; conditions: Serratia marcescens, MOR8441, 18 h, 35° C., read-out: MIC
Outline: as §1

[6] = test system: Pseudomonas aeruginosa VGH 84-3; conditions: Pseudomonas aeruginosa, VGH843, 18 h, 35° C., read-out: MIC
Outline: as §1

[7] = test system: Klebsiella pneumoniae IO 83-5; conditions: Klebsiella pneumoniae, IO835, 18 h, 35° C., read-out: MIC
Outline: as §1

[8] = test system: Enterobacter cloacae K 84-10; conditions: Enterobacter cloacae, K8410, 18 h, 35° C., read-out: MIC
Outline: as §1

[9] = test system: Klebsiella pneumoniae MOR 84-24; conditions: Klebsiella pneumoniae, MOR8424, 18 h, 35° C., read-out: MIC
Outline: as §1

[10] = test system: Pseudomonas aeruginosa LL-1244; conditions: Pseudomonas aeruginosa, LL1244, 18 h, 35° C., read-out: MIC
Outline: as §1

[11] = test system: Morganella morganii VHG 84-12; conditions: Morganella morganii, VHG8412, 18 h, Morganella morganii VHG 84-12 (VGH 84-12 for Example 131), 35° C., read-out: MIC
Outline: as §1

[12] = test system: Escherichia coli ATCC 25922; conditions: 35° C.
Outline: as §1

[13] = test system: Streptococcus faecalis UCI 85-30; conditions: Enterococcus faecalis, UCI8530, 18 h, 35° C., read-out: MIC
Outline: as §1

[14] = test system: Escherichia coli MOR 84-20; conditions: Escherichia coli, MOR8420, 18 h, 35° C., read-out: MIC
Outline: as §1

[15] = test system: Enterobacter cloacae VGH 84-39; conditions: Enterobacter cloacae, VGH8439, 18 h, 35° C., read-out: MIC
Outline: as §1

[16] = test system: Escherichia coli CMC 84-11; conditions: Escherichia coli, CMC8411, 18 h, 35° C., read-out: MIC
Outline: as §1

[17] = test system: Proteus rettgeri CMC 84-41; conditions: Providencia rettgeri, CMC8441, 18 h, 35° C., read-out: MIC
Outline: as §1

[18] = test system: Serratia marcescens VGH 84-30; conditions: Serratia marcescens, VGH8430, 18 h, 35° C., read-out: MIC
Outline: as §1

[19] = test system: Proteus rettgeri IO 83-21; conditions: Providencia rettgeri, IO8321, 18 h, 35° C., read-out: MIC
Outline: as §1

[20] = test system: Serratia marcescens CMC 83-74; conditions: Serratia marcescens, CMC8374, 18 h, 35° C., read-out: MIC
Outline: as §1

[21] = test system: Providencia stuarti CMC 83-3; conditions: Providencia, CMC833, 18 h, 35° C., read-out: MIC
Outline: as §1

[22] = test system: Streptococcus faecalis UCI 85-19; conditions: Enterococcus faecalis, UCI8519, 18 h, 35° C., read-out: MIC
Outline: as §1

[23] = test system: Escherichia coli VGH 84-19; conditions: Escherichia coli, VGH8419, 18 h, 35° C., read-out: MIC
Outline: as §1

[24] = test system: Streptococcus faecalis VGH 84-69; conditions: Enterococcus faecalis, VGH8469, 18 h, 35° C., read-out: MIC
Outline: as §1

[25] = test system: Pseudomonas aeruginosa VGH 84-4; conditions: Pseudomonas aeruginosa, VGH844, 18 h, 35° C., read-out: MIC
Outline: as §1

Escherichia coli LL 311 = conditions: Escherichia coli, LL311, 18 h, 35° C., read-out: MIC
Outline: as §1

[26] = test system: Klebsiella pneumoniae CMC 84-31; conditions: Klebsiella pneumoniae, CMC8431, 18 h, 35° C., read-out: MIC
Outline: as §1

[27] = test system: Morganella morganii CMC 84-38; conditions: Morganella morganii, CMC8438, 18 h, 35° C., read-out: MIC
Outline: as §1

[28] = test system: Pseudomonas aeruginosa K 84-16; conditions: Pseudomonas aeruginosa, K8416, 18 h, 35° C., read-out: MIC
Outline: as §1

[29] = test system: Morganella morganii MOR 84-45; conditions: Morganella morganii, MOR8445, 18 h, 35° C., read-out: MIC
Outline: as §1

[30] = Escherichia coli, ATCC25922, 18 h, read-out: MIC

Compound	MIC [1]	MIC [2]	MIC (Citrobacter div. K 82-24)	MIC [3]	MIC [4]	MIC [5]	MIC [6]	MIC [7]	MIC [8]	MIC [9]	MIC [10]	MIC [11]	MIC [13]	MIC [14]	MIC [15]	MIC [16]	MIC [17]	MIC [18]	MIC [19]	MIC [20]	further results
CN1CCN(c2cc3c(cc2F)c(=O)c(C(=O)O)cn3C2CC2)CC1C1CC1 (stereo not drawn) [Example 125, 1-Cyclopropyl-7-(3-cyclopropyl-4-methyl-1-piperazinyl) -6-fluoro-1,4-dihydro-4-oxo-3-quinolinecarboxylic acid]	16 µg/mL (≈ 41.5 µM)	0.12 µg/mL (≈ 0.311 µM)	0.25 µg/mL (≈ 0.649 µM)	0.12 µg/mL (≈ 0.311 µM)	1 µg/mL (≈ 2.59 µM)	1 µg/mL (≈ 2.59 µM)	> 16 µg/mL	0.5 µg/mL (≈ 1.3 µM)	0.06 µg/mL (≈ 0.156 µM)	0.5 µg/mL (≈ 1.3 µM)	16 µg/mL (≈ 41.5 µM)	1 µg/mL (≈ 2.59 µM)	8 µg/mL (≈ 20.8 µM)	0.25 µg/mL (≈ 0.649 µM)	0.5 µg/mL (≈ 1.3 µM)	0.06 µg/mL (≈ 0.156 µM)	0.25 µg/mL (≈ 0.649 µM)	8 µg/mL (≈ 20.8 µM)	1 µg/mL (≈ 2.59 µM)	> 16 µg/mL	MIC ([12]; 18 hours): 0.06 µg/mL (≈ 0.156 µM); MIC [12, 30]: 0.03 µg/mL (≈ 0.0778 µM); MIC [21]: > 16 µg/mL; MIC [22]: 4 µg/mL (≈ 10.4 µM); MIC [23]: 0.25 µg/mL (≈ 0.649 µM); MIC [24]: 4 µg/mL (≈ 10.4 µM); MIC [25]: 8 µg/mL (≈ 20.8 µM); MIC (Escherichia coli LL 311): 0.06 µg/mL (≈ 0.156 µM); MIC [26]: 0.25 µg/mL (≈ 0.649 µM); MIC [27]: 0.5 µg/mL (≈ 1.3 µM); MIC [28]: 16 µg/mL (≈ 41.5 µM); MIC [29]: 0.5 µg/mL (≈ 1.3 µM)
CCn1cc(C(=O)O)c(=O)c2cc(F)c(N3CCNC(c4ccncc4)C3)cc21 (stereo not drawn) [Example 123]	> 16 µg/mL	0.5 µg/mL (≈ 1.26 µM)	4 µg/mL (≈ 10.1 µM)	0.5 µg/mL (≈ 1.26 µM)	2 µg/mL (≈ 5.05 µM)	8 µg/mL (≈ 20.2 µM)	> 16 µg/mL	8 µg/mL (≈ 20.2 µM)	2 µg/mL (≈ 5.05 µM)	8 µg/mL (≈ 20.2 µM)	64 µg/mL (≈ 161 µM)	8 µg/mL (≈ 20.2 µM)	> 16 µg/mL	2 µg/mL (≈ 5.05 µM)	4 µg/mL (≈ 10.1 µM)	2 µg/mL (≈ 5.05 µM)	2 µg/mL (≈ 5.05 µM)	64 µg/mL (≈ 161 µM)	8 µg/mL (≈ 20.2 µM)	> 16 µg/mL	MIC [12, 30]: 1 µg/mL (≈ 2.52 µM); MIC [21]: > 16 µg/mL; MIC [22]: 8 µg/mL (≈ 20.2 µM); MIC [23]: 2 µg/mL (≈ 5.05 µM); MIC [24]: 16 µg/mL (≈ 40.4 µM); MIC [25]: 64 µg/mL (≈ 161 µM); MIC (Escherichia coli LL 311): 1 µg/mL (≈ 2.52 µM); MIC [26]: 4 µg/mL (≈ 10.1 µM); MIC [27]: 2 µg/mL (≈ 5.05 µM); MIC [28]: > 16 µg/mL; MIC [29]: 2 µg/mL (≈ 5.05 µM)
O=C(O)c1cn(C2CC2)c2cc(N3CCNC(c4cc[nH]n4)C3)c(F)cc2c1=O (stereo not drawn) [Example 121, 1-Cyclopropyl-6-fluoro-1,4-dihydro-4-oxo-7-[3-(1H-pyrazol-3-yl)-1-piperazinyl]-3-quinolinecarboxylic acid]	16 µg/mL (≈ 40.3 µM)	0.12 µg/mL (≈ 0.302 µM)	0.25 µg/mL (≈ 0.629 µM)	0.5 µg/mL (≈ 1.26 µM)	2 µg/mL (≈ 5.03 µM)	1 µg/mL (≈ 2.52 µM)	> 16 µg/mL	1 µg/mL (≈ 2.52 µM)	0.25 µg/mL (≈ 0.629 µM)	1 µg/mL (≈ 2.52 µM)	16 µg/mL (≈ 40.3 µM)	4 µg/mL (≈ 10.1 µM)	2 µg/mL (≈ 5.03 µM)	0.25 µg/mL (≈ 0.629 µM)	0.5 µg/mL (≈ 1.26 µM)	0.06 µg/mL (≈ 0.151 µM)	0.5 µg/mL (≈ 1.26 µM)	32 µg/mL (≈ 80.5 µM)	1 µg/mL (≈ 2.52 µM)	> 16 µg/mL	MIC [21]: > 16 µg/mL; MIC [22]: 2 µg/mL (≈ 5.03 µM); MIC [23]: 0.25 µg/mL (≈ 0.629 µM); MIC [24]: 2 µg/mL (≈ 5.03 µM); MIC [25]: 8 µg/mL (≈ 20.1 µM); MIC (Escherichia coli LL 311): 0.12 µg/mL (≈ 0.302 µM); MIC [26]: 0.25 µg/mL (≈ 0.629 µM); MIC [27]: 0.5 µg/mL (≈ 1.26 µM); MIC [28]: > 16 µg/mL; MIC [29]: 0.25 µg/mL (≈ 0.629 µM)
CCn1cc(C(=O)O)c(=O)c2cc(F)c(N3CCNC(c4cccnc4)C3)cc21 (stereo not drawn) [Example 122]	> 16 µg/mL	0.12 µg/mL (≈ 0.303 µM)	2 µg/mL (≈ 5.05 µM)	0.25 µg/mL (≈ 0.631 µM)	8 µg/mL (≈ 20.2 µM)	4 µg/mL (≈ 10.1 µM)	> 16 µg/mL	2 µg/mL (≈ 5.05 µM)	1 µg/mL (≈ 2.52 µM)	4 µg/mL (≈ 10.1 µM)	32 µg/mL (≈ 80.7 µM)	8 µg/mL (≈ 20.2 µM)	8 µg/mL (≈ 20.2 µM)	1 µg/mL (≈ 2.52 µM)	2 µg/mL (≈ 5.05 µM)	0.25 µg/mL (≈ 0.631 µM)	0.25 µg/mL (≈ 0.631 µM)	32 µg/mL (≈ 80.7 µM)	4 µg/mL (≈ 10.1 µM)	> 16 µg/mL	MIC [21]: > 16 µg/mL; MIC [22]: 4 µg/mL (≈ 10.1 µM); MIC [23]: 1 µg/mL (≈ 2.52 µM); MIC [24]: 8 µg/mL (≈ 20.2 µM); MIC [25]: 32 µg/mL (≈ 80.7 µM); MIC (Escherichia coli LL 311): 0.25 µg/mL (≈ 0.631 µM); MIC [26]: 4 µg/mL (≈ 10.1 µM); MIC [27]: 1 µg/mL (≈ 2.52 µM); MIC [28]: > 16 µg/mL; MIC [29]: 1 µg/mL (≈ 2.52 µM)
